Source: patent US11780849B2, “Imino sulfanone inhibitors of ENPP1” (Volastra Therapeutics, Inc., priority 2020, dated 2023)
Where two headings read alike, the source gives them in different places.

Legend:
[1] = target: ENPP1 on MDA-MB-231 cells (Homo sapiens (Human), UniProt P22413); test: Assay 3: inhibition of ENPP1 hydrolysis of AMP p-nitrophenyl ester on MDA-MB-231 cells
Method: Hydrolysis of the p-nitrophenyl ester of AMP (pNP-AMP), an isostere of ATP, is selectively catalyzed by ENPP1 in the supernatant of MDA-MB-231 cell cultures. Inhibition of the hydrolysis of pNP-AMP by MDA-MB-231 at pH 7.4 and 37° C., is a good model of physiologically relevant activity of membrane-bound ENPP1 at disease-relevant expression levels.
MDA-MB-231 cells were harvested using TypLE Express Enzyme digestion and suspended in 100 μL of Leibovitz's L-15 Medium, 20% FBS, seeding the cells in a 96-well assay plate with 4.5×10^4 cells/well. Cells were incubated at 37° C. with 1% CO2 for 24 h. In a separate dilution plate, 2× of top dose of compound was prepared in phenol-red free 1640 medium without FBS and then 1:3 serial diluted in the same medium. The cell culture medium of L15 medium was aspirated carefully and cells were washed with PBS once, and 50 μL per well of test compound or DMSO blank were added to the assay plate. Substrate mix (50 μL; 0.5 mM pNP-AMP in phenol-red free 1640 media without FBS) was added for a pNP-AMP final concentration of 0.25 mM. The system was incubated at 37° C. for 3 h.

ENPP-1 ECD [2] = target: T1, ENPP-1 ECD (Homo sapiens (Human), UniProt P22413); test: Assay 1: inhibition of ENPP1 hydrolysis of 2′,3′-cGAMP (AMP-Glo, […] enzyme)
T1 sequence (P22413 98-925): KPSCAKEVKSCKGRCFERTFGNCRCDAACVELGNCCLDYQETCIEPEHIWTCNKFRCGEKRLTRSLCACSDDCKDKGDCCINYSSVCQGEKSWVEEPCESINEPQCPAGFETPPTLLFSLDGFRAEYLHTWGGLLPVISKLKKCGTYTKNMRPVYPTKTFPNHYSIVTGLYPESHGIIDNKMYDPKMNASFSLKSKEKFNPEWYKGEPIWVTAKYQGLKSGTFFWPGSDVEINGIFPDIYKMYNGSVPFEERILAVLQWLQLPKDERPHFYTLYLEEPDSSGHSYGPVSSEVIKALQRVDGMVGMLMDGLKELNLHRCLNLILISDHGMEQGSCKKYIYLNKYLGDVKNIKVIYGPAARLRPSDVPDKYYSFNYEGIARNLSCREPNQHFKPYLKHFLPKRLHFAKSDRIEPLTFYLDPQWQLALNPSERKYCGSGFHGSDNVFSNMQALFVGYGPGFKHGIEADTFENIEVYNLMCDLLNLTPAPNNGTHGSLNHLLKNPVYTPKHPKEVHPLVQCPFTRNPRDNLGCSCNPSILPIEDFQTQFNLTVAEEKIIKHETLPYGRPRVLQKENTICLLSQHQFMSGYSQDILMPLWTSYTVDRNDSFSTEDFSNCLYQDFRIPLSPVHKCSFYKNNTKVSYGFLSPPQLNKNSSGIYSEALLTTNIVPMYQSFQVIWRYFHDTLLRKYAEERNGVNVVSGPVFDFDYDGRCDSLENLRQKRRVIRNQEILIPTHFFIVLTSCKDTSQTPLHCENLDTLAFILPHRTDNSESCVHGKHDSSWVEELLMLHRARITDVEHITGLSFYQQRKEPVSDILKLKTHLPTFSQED
Method: Assay 1: Test compounds were plated in a 3× dilution scheme in a 384 well plate. […] AMP Detection solution (100 μL) was added to each well, the plate centrifuged and incubated for 60 min.

ENPP-1 ECD [3] = target: T1, ENPP-1 ECD; test: Assay 2: inhibition of ENPP1 hydrolysis of 2′,3′-cGAMP (AMP-Glo, […] enzyme)
Method: Assay 2: Compared to the conditions in Assay 1, this assay has a larger dynamic range and ensures the system is under steady-state conditions by reducing the enzyme concentration in the assay.
Test compounds were plated in a 3× dilution scheme in a 384 well plate. […] AMP Detection solution (10 μL) was added to each well, the plate centrifuged and incubated for 60 min.

[4] = Assay 1 (IC50), ENPP1 hydrolysis of 2′,3′-cGAMP, AMP-Glo
[5] = Assay 1 (IC50), inhibition of ENPP1 hydrolysis of 2′,3′-cGAMP, no unit in Table 18 (Table 17 legend for this assay uses nM)
[6] = IC50 in Assay 1, […] ENPP-1 ECD, 24 μM 2,3-cGAMP, pH 8.0
[7] = Assay 2 (KI), ENPP1 hydrolysis of 2′,3′-cGAMP, AMP-Glo, […] ENPP-1, 24 μM cGAMP
[8] = Assay 2 (KI), inhibition of ENPP1 hydrolysis of 2′,3′-cGAMP, no unit in Table 18 (Table 17 legend for this assay uses nM)
[9] = read-out: Assay 1 (IC50), ENPP1 hydrolysis of 2′,3′-cGAMP, AMP-Glo
[10] = read-out: Assay 3 (KI, app), apparent KI from IC50 via Cheng/Prusoff, pNP-AMP […], MDA-MB-231 cells, pH 7.4, 37° C., 3 h, unit inferred
[11] = read-out: Assay 1 (IC50), inhibition of ENPP1 hydrolysis of 2′,3′-cGAMP, no unit in Table 18 (Table 17 legend for this assay uses nM)
[12] = read-out: Assay 2 (KI), ENPP1 hydrolysis of 2′,3′-cGAMP, AMP-Glo, […] ENPP-1, 24 μM cGAMP
[13] = read-out: Assay 2 (KI), inhibition of ENPP1 hydrolysis of 2′,3′-cGAMP, no unit in Table 18 (Table 17 legend for this assay uses nM)

ENPP1 on MDA-MB-231 cells, sequence (P22413 whole entry, the tested form may be a part): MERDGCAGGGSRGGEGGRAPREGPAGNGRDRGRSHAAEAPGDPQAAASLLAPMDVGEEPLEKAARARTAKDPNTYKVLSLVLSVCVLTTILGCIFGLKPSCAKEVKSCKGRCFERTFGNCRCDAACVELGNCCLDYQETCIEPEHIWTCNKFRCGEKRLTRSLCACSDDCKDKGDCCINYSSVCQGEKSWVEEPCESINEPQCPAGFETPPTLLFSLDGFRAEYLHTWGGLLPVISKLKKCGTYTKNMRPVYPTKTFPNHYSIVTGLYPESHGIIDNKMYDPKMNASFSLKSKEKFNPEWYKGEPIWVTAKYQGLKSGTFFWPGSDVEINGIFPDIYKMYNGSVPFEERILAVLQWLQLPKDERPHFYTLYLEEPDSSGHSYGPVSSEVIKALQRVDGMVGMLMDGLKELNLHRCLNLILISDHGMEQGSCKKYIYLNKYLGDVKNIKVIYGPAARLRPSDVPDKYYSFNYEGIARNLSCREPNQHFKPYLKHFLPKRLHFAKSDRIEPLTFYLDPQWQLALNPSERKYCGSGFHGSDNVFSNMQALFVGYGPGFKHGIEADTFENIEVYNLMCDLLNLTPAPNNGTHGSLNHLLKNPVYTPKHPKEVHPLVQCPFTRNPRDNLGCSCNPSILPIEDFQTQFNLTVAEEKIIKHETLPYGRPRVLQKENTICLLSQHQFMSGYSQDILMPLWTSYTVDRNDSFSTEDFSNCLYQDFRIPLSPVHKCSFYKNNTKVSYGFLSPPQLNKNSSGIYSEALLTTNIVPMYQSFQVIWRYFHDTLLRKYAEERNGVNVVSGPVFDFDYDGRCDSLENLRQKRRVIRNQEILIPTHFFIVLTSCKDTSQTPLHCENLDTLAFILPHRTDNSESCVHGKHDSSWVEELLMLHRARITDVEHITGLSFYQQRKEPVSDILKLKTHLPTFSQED

COc1cc2nccc(Oc3ccc(S(C)(=N)=O)cc3)c2cc1OC (stereo not shown) [Compound 1, (4-((6,7-dimethoxyquinolin-4-yl)oxy)phenyl)(imino)(methyl)-λ^6-sulfanone]
Ki [1]: 61 nM | Ki (ENPP-1 ECD [2]): 5.1 nM | IC50 (ENPP-1 ECD [2]; [4]): 10 to 1000 nM | IC50 (ENPP-1 ECD [2]; [5]): 17 nM | IC50 (ENPP-1 ECD [2]; [6]): 17 nM | Ki (ENPP-1 ECD [3]; [7]): 3 to 300 nM | Ki (ENPP-1 ECD [3]; [8]): 3.5 nM

COc1cc2nccc(Oc3ccc([S@@](C)(=N)=O)cc3)c2cc1OC [Compound 1S, (S)-(4-((6,7-dimethoxyquinolin-4-yl)oxy)phenyl)(imino)(methyl)-λ^6-sulfanone]
Ki [1]: 45 nM | IC50 (ENPP-1 ECD [2]; [4]): 10 to 1000 nM | IC50 (ENPP-1 ECD [2]; [5]): 13 nM | Ki (ENPP-1 ECD [3]; [7]): < 3 nM | Ki (ENPP-1 ECD [3]; [8]): 0.87 nM

COc1cc2ncnc(N3CCC(CCS(C)(=N)=O)CC3)c2cc1OC (stereo not shown) [Compound 8, (2-(1-(6,7-dimethoxyquinazolin-4-yl)piperidin-4-yl)ethyl)(imino)(methyl)-λ^6-sulfanone]
Ki [1]: 27 nM | IC50 (ENPP-1 ECD [2]; [5]): 4.1 nM | IC50 (ENPP-1 ECD [2]; [6]): 6.9 nM | IC50 (ENPP-1 ECD [2]; [9]): < 10 nM | Ki (ENPP-1 ECD [3]; [7]): < 3 nM | Ki (ENPP-1 ECD [3]; [8]): 0.69 nM

COc1ccc2c(Oc3ccc(S(C)(=N)=O)cc3F)ccnc2c1 (stereo not shown) [Compound 12, (3-fluoro-4-((7-methoxyquinolin-4-yl)oxy)phenyl)(imino)(methyl)-λ^6-sulfanone]
Ki [1]: 190 nM | IC50 (ENPP-1 ECD [2]; [4]): 10 to 1000 nM | IC50 (ENPP-1 ECD [2]; [5]): 30 nM | Ki (ENPP-1 ECD [3]; [7]): 3 to 300 nM | Ki (ENPP-1 ECD [3]; [8]): 8.6 nM

COc1cc2ncnc(-c3ccc4c(c3)CN(S(C)(=N)=O)CC4)c2cc1OC (stereo not shown) [Compound 37, 6,7-dimethoxy-4-(2-(S-methylsulfonimidoyl)-1,2,3,4-tetrahydroisoquinolin-7-yl)quinazoline]
Ki [1]: 28 nM | IC50 (ENPP-1 ECD [2]; [5]): 2.9 nM | IC50 (ENPP-1 ECD [2]; [9]): < 10 nM | Ki (ENPP-1 ECD [3]; [7]): < 3 nM | Ki (ENPP-1 ECD [3]; [8]): 0.41 nM

COc1cc2ncc(C#N)c(N3CCC(CCS(C)(=N)=O)CC3)c2cc1F (stereo not shown) [Compound 43, 6-fluoro-7-methoxy-4-(4-(2-(S-methylsulfonimidoyl)ethyl)piperidin-1-yl)quinoline-3-carbonitrile]
Ki [1]: 29 nM | IC50 (ENPP-1 ECD [2]; [5]): 3.9 nM | IC50 (ENPP-1 ECD [2]; [9]): < 10 nM | Ki (ENPP-1 ECD [3]; [7]): < 3 nM | Ki (ENPP-1 ECD [3]; [8]): 0.49 nM

COc1cc2ncc(C#N)c(Oc3ccc(S(C)(=N)=O)cc3)c2cc1F (stereo not shown) [Compound 44, 6-fluoro-7-methoxy-4-(4-(S-methylsulfonimidoyl)phenoxy)quinoline-3-carbonitrile]
Ki [1]: 110 nM | IC50 (ENPP-1 ECD [2]; [4]): 10 to 1000 nM | IC50 (ENPP-1 ECD [2]; [5]): 15 nM | Ki (ENPP-1 ECD [3]; [7]): < 3 nM | Ki (ENPP-1 ECD [3]; [8]): 1.6 nM

COc1cc2ncc(C#N)c(Oc3ccc([S@@](C)(=N)=O)cc3)c2cc1F [Compound 44a]
Ki [1, 10]: 110 nM | IC50 (ENPP-1 ECD [2]; [9]): 10 to 1000 nM | IC50 (ENPP-1 ECD [2]; [11]): 11 nM | Ki (ENPP-1 ECD [3]; [12]): < 3 nM | Ki (ENPP-1 ECD [3]; [13]): 1 nM

COc1ccc2c(-c3ccc4c(c3)CN(S(C)(=N)=O)CC4)ccnc2c1 (stereo not shown) [Compound 52, 7-methoxy-4-(2-(S-methylsulfonimidoyl)-1,2,3,4-tetrahydroisoquinolin-7-yl)quinoline]
Ki [1]: 280 nM | IC50 (ENPP-1 ECD [2]; [4]): 10 to 1000 nM | IC50 (ENPP-1 ECD [2]; [5]): 35 nM | Ki (ENPP-1 ECD [3]; [7]): 3 to 300 nM | Ki (ENPP-1 ECD [3]; [8]): 6.3 nM

COc1ccc2c(N3CCC4(CC3)CN(S(C)(=N)=O)C4)ccnc2c1 (stereo not shown) [Compound 53, 7-methoxy-4-(2-(S-methylsulfonimidoyl)-2,7-diazaspiro[3.5]nonan-7-yl)quinoline]
Ki [1]: 160 nM | IC50 (ENPP-1 ECD [2]; [4]): 10 to 1000 nM | IC50 (ENPP-1 ECD [2]; [5]): 44 nM | Ki (ENPP-1 ECD [3]; [7]): 3 to 300 nM | Ki (ENPP-1 ECD [3]; [8]): 4.6 nM

COc1cc2ncnc(N3CCC4(CC3)CCN(S(C)(=N)=O)C4)c2cc1OC (stereo not shown) [Compound 54, [8-(6,7-dimethoxyquinazolin-4-yl)-2,8-diazaspiro[4.5]decan-2-yl](imino)methyl-λ^6-sulfanone]
Ki [1]: 0.88 nM | IC50 (ENPP-1 ECD [2]; [5]): 0.71 nM | Ki (ENPP-1 ECD [3]; [7]): < 3 nM | Ki (ENPP-1 ECD [3]; [8]): 0.014 nM

COc1cc2ncnc(N3CCC4(CC3)CCN([S@@](C)(=N)=O)C4)c2cc1OC [Compound 54a]
Ki [1, 10]: 0.32 nM | IC50 (ENPP-1 ECD [2]; [9]): < 10 nM | IC50 (ENPP-1 ECD [2]; [11]): 0.34 nM | Ki (ENPP-1 ECD [3]; [12]): < 3 nM | Ki (ENPP-1 ECD [3]; [13]): 0.0075 nM

COc1cc2ncnc(N3CCC4(CC3)CCN([S@](C)(=N)=O)C4)c2cc1OC [Compound 54b]
Ki [1, 10]: 130 nM | IC50 (ENPP-1 ECD [2]; [9]): < 10 nM | IC50 (ENPP-1 ECD [2]; [11]): 7.6 nM | Ki (ENPP-1 ECD [3]; [12]): < 3 nM | Ki (ENPP-1 ECD [3]; [13]): 1.3 nM

COc1ccc2c(N3CCC4(CC3)CCN(S(C)(=N)=O)C4)ccnc2c1 (stereo not shown) [Compound 55, 8-(7-methoxyquinolin-4-yl)-2-(S-methylsulfonimidoyl)-2,8-diazaspiro[4.5]decane]
Ki [1]: 25 nM | IC50 (ENPP-1 ECD [2]; [5]): 2 nM | IC50 (ENPP-1 ECD [2]; [9]): < 10 nM | Ki (ENPP-1 ECD [3]; [7]): < 3 nM | Ki (ENPP-1 ECD [3]; [8]): 0.14 nM

COc1ccc2c(N3CCC4(CC3)CCN([S@](C)(=N)=O)C4)ccnc2c1 [Compound 55a]
Ki [1, 10]: 8.7 nM | IC50 (ENPP-1 ECD [2]; [9]): < 10 nM | IC50 (ENPP-1 ECD [2]; [11]): 0.76 nM | Ki (ENPP-1 ECD [3]; [12]): < 3 nM | Ki (ENPP-1 ECD [3]; [13]): 0.09 nM

COc1cccc2c(N3CCC(CCS(C)(=N)=O)CC3)c(C#N)cnc12 (stereo not shown) [Compound 57, 8-methoxy-4-(4-(2-(S-methylsulfonimidoyl)ethyl)piperidin-1-yl)quinoline-3-carbonitrile]
Ki [1]: 120 nM | IC50 (ENPP-1 ECD [2]; [4]): 10 to 1000 nM | IC50 (ENPP-1 ECD [2]; [5]): 31 nM | Ki (ENPP-1 ECD [3]; [7]): 3 to 300 nM | Ki (ENPP-1 ECD [3]; [8]): 5.3 nM

COc1ccc2c(Oc3ccc(S(=N)(=O)C4CC4)cc3)ccnc2c1 (stereo not shown) [Compound 60, cyclopropyl(imino)(4-((7-methoxyquinolin-4-yl)oxy)phenyl)-λ^6-sulfanone]
Ki [1]: 23 nM | IC50 (ENPP-1 ECD [2]; [5]): 2.8 nM | IC50 (ENPP-1 ECD [2]; [9]): < 10 nM | Ki (ENPP-1 ECD [3]; [7]): < 3 nM | Ki (ENPP-1 ECD [3]; [8]): 0.34 nM

COc1ccc2c(Oc3ccc([S@@](=N)(=O)C4CC4)cc3)ccnc2c1 [Compound 60a]
Ki [1, 10]: 11 nM | IC50 (ENPP-1 ECD [2]; [9]): < 10 nM | IC50 (ENPP-1 ECD [2]; [11]): 1.3 nM | Ki (ENPP-1 ECD [3]; [12]): < 3 nM | Ki (ENPP-1 ECD [3]; [13]): 0.099 nM

COc1cccc2c(N3CCC(CCS(C)(=N)=O)CC3)ncnc12 (stereo not shown) [Compound 72, imino({2-[1-(8-methoxyquinazolin-4-yl)piperidin-4-yl]ethyl})methyl-λ^6-sulfanone]
Ki [1]: 430 nM | IC50 (ENPP-1 ECD [2]; [4]): 10 to 1000 nM | IC50 (ENPP-1 ECD [2]; [5]): 120 nM | Ki (ENPP-1 ECD [3]; [7]): 3 to 300 nM | Ki (ENPP-1 ECD [3]; [8]): 18 nM

COc1cccc2c(N3CC[C@@H](C[S@](C)(=N)=O)C3)ncnc12 [Compound 239a]
Ki [1, 10]: 5.4 nM | Ki (ENPP-1 ECD [3]; [13]): 0.43 nM

COc1cc2ncnc(N3CCC4(CC3)CCN(S(=N)(=O)CC(C)(C)O)C4)c2cc1OC (stereo not shown) [Compound 240, [8-(6,7-dimethoxyquinazolin-4-yl)-2,8-diazaspiro[4.5]decan-2-yl](2-hydroxy-2-methylpropyl)imino-λ^6-sulfanone]
Ki [1]: 5.4 nM | Ki (ENPP-1 ECD [3]; [8]): 0.069 nM

COc1cc2ncnc(N3CCC4(CC3)CCN(S(C)(=N)=O)C4)c2cc1OCF (stereo not shown) [Compound 241, {8-[6-(fluoromethoxy)-7-methoxyquinazolin-4-yl]-2,8-diazaspiro[4.5]decan-2-yl}(imino)methyl-λ^6-sulfanone]
Ki [1]: 1.2 nM | Ki (ENPP-1 ECD [3]; [8]): 0.031 nM

COc1cc2nccc(OCc3cccc(S(=N)(=O)C4CC4)c3)c2cc1F (stereo not shown) [Compound 244, [cyclopropyl(3-{[(6-fluoro-7-methoxyquinolin-4-yl)oxy]methyl}phenyl)imino-λ^6-sulfanyl]one]
Ki [1]: 0.55 nM | Ki (ENPP-1 ECD [3]; [8]): 0.018 nM

COc1ccc2c(O[C@@H](C)c3cccc(S(C)(=N)=O)c3)ccnc2c1 (stereo partly drawn) [Compound 245, imino({3-[(1S)-1-[(7-methoxyquinolin-4-yl)oxy]ethyl]phenyl})methyl-λ^6-sulfanone]
Ki [1]: 5.7 nM | Ki (ENPP-1 ECD [3]; [8]): 0.23 nM

COc1cc2ncnc(-c3ccc4c(c3)CN(S(N)(=O)=O)CC4)c2cc1OC [reference compound]
Ki [1]: 23 nM | IC50 (ENPP-1 ECD [2]; [6]): 11 nM
